From article PMC8228234, “Identifying a Novel Bile Salt Hydrolase from the Keystone Gut Bacterium Christensenella minuta” (Microorganisms, 2021) come the findings set out here.

This test has as its target T1, Cm33407BSH (Christensenella minuta, UniProt A0A8F5DVT9).
T1 construct: gene BSH
Put plainly: ninhydrin assay of released amino acid. Type of test: biochemical. The conditions noted are these: citrate buffer pH 6.0, 37 °C, 10 mM DTT, 5 mM substrate.

T1 sequence (A0A8F5DVT9 entry or part of it): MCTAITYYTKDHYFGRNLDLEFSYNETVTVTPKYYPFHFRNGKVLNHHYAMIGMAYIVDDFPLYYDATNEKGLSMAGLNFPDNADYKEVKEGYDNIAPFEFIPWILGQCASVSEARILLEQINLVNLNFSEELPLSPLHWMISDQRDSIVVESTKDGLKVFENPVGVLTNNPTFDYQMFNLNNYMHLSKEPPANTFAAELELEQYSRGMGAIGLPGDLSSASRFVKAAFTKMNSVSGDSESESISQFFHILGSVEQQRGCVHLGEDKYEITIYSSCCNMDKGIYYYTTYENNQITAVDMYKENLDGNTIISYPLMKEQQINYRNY

As to `C[C@H](CCC(=O)NCC(=O)O)[C@H]1CC[C@H]2[C@@H]3[C@H](O)C[C@@H]4C[C@H](O)CC[C@]4(C)[C@H]3C[C@H](O)[C@]12C` [GCA], the specific activity result is “displayed high specific activity values for the glycine conjugates GCA and GCDCA”.

Turning to `C[C@H](CCC(=O)NCC(=O)O)[C@H]1CC[C@H]2[C@@H]3[C@H](O)C[C@@H]4C[C@H](O)CC[C@]4(C)[C@H]3CC[C@]12C` [GCDCA], the specific activity result is “displayed high specific activity values for the glycine conjugates GCA and GCDCA”.
